These results are taken from patent EP2392568A1, “Heterocyclic amino acids for prostate cancer imaging” (priority 2010, dated 2011).

Data set [1] concerns DU145 prostate cancer cells. In words: Cell-uptake experiment: uptake of [14C] ACPC in the presence of excess heterocyclic amino acid. In kind it is cell-based. Particulars: 5 µM 14C-ACPC, 60 minutes at 37°C, uptake buffer PBS with 0.1% BSA, Figure 10. The procedure: To assess the difference between heterocyclic amino acids and other non-natural amino acids, we studied the uptake of the cyclic amino acid [14C] ACPC into DU145 prostate cancer cells in the presence of excess amount of an heterocyclic amino acid (compound 15). 25000 DU145 cells were seeded per cavity of a 48 well incubation plate (Becton Dickinson; Cat. 353078) and incubated for 2 days in D-MEM / F-12 (1:1) with GlutaMAx (Invitrogen; Cat. 31331) medium supplemented with 10% FCS in an incubator (37°C, 5%CO2).

Data set [2] has as its system DU145 xenografts. The data set is described as follows: PET/CT-imaging in DU145-tumor bearing mice. In kind it is in vivo. Particulars: microPET/CT; for renal clearance / background activity: 50-70min after injection; for tumor-contrast: 50-70min after injection of - 10 MBq radiotracer; for background activity: except for kidney and bladder uptake. The procedure:
Example 9 was imaged on a microPET/ CT (Inveon, Siemens) in DU145 tumor-bearing mice 50-70min after injection of - 10 MBq radiotracer 45.
Example 10 was imaged on a microPET/ CT (Inveon, Siemens) in DU145 tumor-bearing mice 50-70min after injection of - 10 MBq radiotracer 46.

Data set [3] concerns primary prostate cancer tumors. Particulars: prostate cancer patients, cited from earlier work; for uptake into primary prostate cancer tumors: Schuster et al., abstract at SNM 2010.
The conditions of data set [4]: McConathy and Goodman, Cancer Metastasis Rev. 2008; cited from earlier work.

Each structure is given as a SMILES string.

With `N[C@]1(C(=O)O)COC[C@H]1F` (racemic) [compound 15, (3SR,4SR)-3-Amino-4-fluorotetrahydrofuran-3-carboxylic acid], the “[14C] ACPC uptake into DU145 prostate cancer cells in the presence of excess amount of heterocyclic amino acid” value in data set [1] is “able to block [14C] ACPC uptake”.
With `NC1(C(=O)O)COCC1[18F]` (racemic) [tracer 45, (3SR,4SR)-3-Amino-4-[^18F]fluorotetrahydrofuran-3-carboxylic acid], in data set [2], the renal clearance entry was “rapid renal clearance”, the tumor-contrast result is on record as “High tumor-contrast” and the background activity result is on record as “very low background activity”.
The corresponding values for `N[C@@]1(C(=O)O)CCOC[C@@H]1[18F]` (racemic) [tracer 46, (3RS,4RS)-4-Amino-3-[^18F]fluoro-3,4,5,6-tetrahydro-2H-pyran-4-carboxylic acid] are “rapid renal clearance”, “High tumor-contrast” and “very low background activity”.
As to `NC1(C(=O)O)CCCC1[18F]` (centres unmarked) [2-FACPC], in data set [3], the “uptake into primary prostate cancer tumors” value is given as “showed uptake into primary prostate cancer tumors”, the “background in other organs” value was “high background signals for instance in the blood pool” and the “renal elimination / excretion into the bladder” value is on record as “excreted into the bladder more rapidly”.
Turning to `N[C@]1(C(=O)O)C[C@@H](F)C1` [3-FACBC, anti-1-amino-3-[18F]fluorocyclobutyl-1-carboxylic acid], in data set [3], the “uptake into primary prostate cancer tumors” value is on record as “showed uptake into primary prostate cancer tumors”; the “background in other organs” value is “high background in other organs such as liver and heart”; the “renal elimination / excretion into the bladder” value is on record as “delayed renal elimination”.
As for `NC1([11C](=O)O)CCC1` [[11C]ACBC, 1-aminocyclobutane-1-[11C]carboxylic acid], the metabolism entry in data set [4] is given as “not metabolized”.
